According to PubChem BioAssay AID588771 (The Scripps Research Institute Molecular Screening Center, 2011):
Active and inactive are the calls of the source. The rule behind the calls is not given here.

These compounds were tested against 3C-like protease (3CLpro), SARS coronavirus (assay: SARS 3CLpro protease inhibitor potency, late-stage follow-up, biochemical, fluorescence, dose response, set 3 (AID 588771)). Conditions: purified 3CLpro, fluorogenic substrate cleavage.

Compound	IC50
CC(C)(C)NC(=O)C(c1ccncc1)N(C(=O)c1ccco1)c1ccc(C(C)(C)C)cc1 (stereo not given)	inactive
CC(C)(C)NC(=O)C(c1ccnnc1)N(C(=O)c1ccco1)c1ccc(C(C)(C)C)cc1 (stereo not given)	inactive
CC(C)(C)NC(=O)[C@H](c1cccnc1)N(C(=O)c1cnc[nH]1)c1ccc(C(C)(C)C)cc1	4.5 µM
CC(C)C(=O)Nc1ccc(N(C(=O)Cn2nnc3ccccc32)C(C(=O)NCc2ccccc2)c2cccc(F)c2)cc1 (stereo not given)	4.1 µM
Cn1cnc(C(=O)N(c2ccc(C(C)(C)C)cc2)C(C(=O)NC(C)(C)C)c2cccnc2)c1 (stereo not given)	inactive
CC(C)(C)NC(=O)[C@@H](c1cccnc1)N(C(=O)c1cnc[nH]1)c1ccc(C(C)(C)C)cc1	inactive
O=C(Nc1ccc(N(C(=O)Cn2nnc3ccccc32)C(C(=O)NCc2ccccc2)c2cccc(F)c2)cc1)C1CC1 (stereo not given)	3 µM
CC(C)(C)NC(=O)C(c1cccnc1)N(C(=O)c1ccco1)c1ccc(Cc2ccccc2)cc1 (stereo not given)	inactive
O=C(Nc1ccc(N(C(=O)Cn2nnc3ccccc32)C(C(=O)NCc2ccccc2)c2cccc(F)c2)cc1)C1CCC1 (stereo not given)	2.3 µM
CC(C)(C)NC(=O)C(c1cnccn1)N(C(=O)c1ccco1)c1ccc(C(C)(C)C)cc1 (stereo not given)	5.5 µM
